ChEMBL document CHEMBL1221220, “Transport and signaling via the amino acid binding site of the yeast Gap1 amino acid transceptor” (Nat Chem Biol, 2009)
Non-standard residues stand in square brackets, D forms with d. Residues, ends and D or L forms follow the SMILES beside them. *: point of attachment. Hyp = O=C(O)[C@@H]1C[C@@H](O)CN1; Cit = NC(=O)NCCC[C@H](N)C(=O)O; NMeL = CN[C@@H](CC(C)C)C(=O)O; Bz = O=C(c1ccccc1)*; βAla = NCCC(=O)O; Sar = CNCC(=O)O

Molecular target: T1, General amino-acid permease GAP1 (Saccharomyces cerevisiae) (UniProt P19145)
T1 sequence (whole entry): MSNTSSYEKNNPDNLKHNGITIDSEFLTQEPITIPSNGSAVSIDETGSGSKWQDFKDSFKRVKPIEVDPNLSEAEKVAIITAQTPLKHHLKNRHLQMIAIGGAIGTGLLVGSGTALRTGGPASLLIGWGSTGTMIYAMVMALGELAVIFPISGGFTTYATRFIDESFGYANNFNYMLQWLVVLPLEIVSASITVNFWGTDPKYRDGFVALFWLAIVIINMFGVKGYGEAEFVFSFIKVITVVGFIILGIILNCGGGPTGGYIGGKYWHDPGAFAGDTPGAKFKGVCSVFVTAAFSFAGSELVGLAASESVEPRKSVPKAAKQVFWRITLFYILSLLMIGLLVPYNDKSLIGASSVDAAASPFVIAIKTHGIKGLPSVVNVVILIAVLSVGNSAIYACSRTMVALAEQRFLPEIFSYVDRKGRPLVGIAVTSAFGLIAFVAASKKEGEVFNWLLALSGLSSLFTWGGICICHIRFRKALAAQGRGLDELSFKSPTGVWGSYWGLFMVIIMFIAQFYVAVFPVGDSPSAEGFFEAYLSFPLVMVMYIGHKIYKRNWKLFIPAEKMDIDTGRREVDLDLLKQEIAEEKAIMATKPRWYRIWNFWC
Details: sigma1278b, at 5 mM
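Further: amino acid uptake through Gap1 in nitrogen-starved wild-type yeast cells, measured after 60 s and expressed relative to L-citrulline.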
Description: Inhibition of nitrogen-starved wild type sigma1278b yeast Gap1-mediated amino acid uptake at 5 mM after 60 secs relative to L-citrulline

Structure (SMILES) | inhibition [%]
CCC[C@@H](NC(=O)[C@@H](N)CCC(=O)O)C(=O)O | < 15
CSCC[C@H](N)C(=O)N[C@@H](CC(C)C)C(=O)O (H-Met-Leu-OH) | < 15
CC(C)(C)OC(=O)N[C@@H](CO)C(=O)O | < 15
N[C@@H](CCC(=O)O)C(=O)N[C@@H](Cc1ccc(O)cc1)C(=O)N[C@@H](CCC(=O)O)C(=O)O (H-Glu-Tyr-Glu-OH) | 15
CC(C)C[C@H](N)C(=O)NCC(=O)N1CCC[C@H]1C(=O)O (H-Leu-Gly-Pro-OH) | < 15
CC(C)C[C@H](N)C(=O)N[C@@H](Cc1cnc[nH]1)C(=O)O (H-Leu-His-OH) | > 30
C[C@@H](CC(=O)O)NC(=O)OC(C)(C)C | < 15
N[C@@H](Cc1c[nH]cn1)C(=O)NCC(=O)O (H-His-Gly-OH) | < 15
N[C@@H]1CONC1=O | < 15
CC(C)(C)OC(=O)N[C@@H](Cc1cnc[nH]1)C(=O)O | < 15
NCC(=O)N[C@@H](Cc1ccccc1)C(N)=O (H-Gly-Phe-NH2) | 15
NCCC(N)=O | < 15
CC(C)C[C@H](NC(=O)CNC(=O)[C@@H](N)CC(C)C)C(=O)O (H-Leu-Gly-Leu-OH) | < 15
CC[C@H](C)[C@H](N)C(=O)N[C@@H](CC(C)C)C(=O)N[C@@H](CC(C)C)C(=O)O (H-Ile-Leu-Leu-OH) | > 30
CC(C)C(NC(=O)CN)C(=O)O (stereo in doubt) | < 15
CC(C)CC(NC(=O)C(C)N)C(=O)O (racemic) | 15
N[C@@H](Cc1c[nH]cn1)C(=O)N[C@@H](Cc1c[nH]cn1)C(=O)O | 15
CSCC[C@H](N)C(=O)N[C@@H](CO)C(=O)O (H-Met-Ser-OH) | < 15
CCC[C@H](N)C(=O)OC | < 15
CSCC[C@H](NC(=O)[C@H](CC(C)C)NC(=O)CN)C(=O)O (H-Gly-Leu-Met-OH) | < 15
CC(C)C[C@H](NC(=O)CCCN)C(=O)O | < 15
CC(C)C[C@H](NC(=O)OC(C)(C)C)C(=O)O | < 15
CCOC(=O)C(N)Cc1c[nH]c2ccccc12 (racemic) | < 15
C[C@@H](O)C(NC(=O)CN)C(=O)O (mixture of isomers) | 15
CC(C)[C@@H](NC(=O)OC(C)(C)C)C(=O)O | < 15

Structure (SMILES) | inhibition [%]
CSCC[C@H](NC(=O)[C@H](Cc1ccc(O)cc1)NC(=O)[C@@H](N)CC(=O)O)C(=O)O (H-Asp-Tyr-Met-OH) | < 15
CSCC[C@H](N)C(=O)N[C@@H](C)C(=O)N[C@@H](CO)C(=O)O (H-Met-Ala-Ser-OH) | < 15
COC(=O)[C@@H](N)[C@@H](C)O | < 15
CC(C)C[C@H](NC(=O)[C@H](CC(C)C)NC(=O)[C@@H](N)C(C)C)C(=O)O (H-Val-Leu-Leu-OH) | < 15
CC(C)C[C@H](N)C(=O)N1C[C@H](O)C[C@H]1C(=O)O (H-Leu-[Hyp]-OH) | < 15
COC(=O)[C@@H]1C=CCN1 | < 15
NC(=O)CC[C@H](NC(=O)[C@@H]1CCCN1)C(=O)O (H-Pro-Gln-OH) | < 15
CSCC[C@H](NC(=O)CN)C(=O)N[C@@H](CC(C)C)C(=O)O (H-Gly-Met-Leu-OH) | < 15
CC(C)[C@H](N)C(=O)N[C@H](C(=O)O)C(C)C (H-Val-Val-OH) | 15
CC(C)[C@H](N)C(=O)NCC(=O)O (H-Val-Gly-OH) | < 15
CC(C)(C)OC(=O)N[C@@H](CCCCN)C(=O)O | < 15
C[C@H](N)C(=O)N[C@@H](Cc1c[nH]c2ccccc12)C(=O)O (H-Ala-Trp-OH) | > 30
CC(=O)NCCCC[C@H](NC(C)=O)C(=O)O | < 15
NCC(=O)N[C@@H](Cc1cnc[nH]1)C(=O)O (H-Gly-His-OH) | < 15
COC(=O)[C@@H](N)Cc1ccc(O)cc1 | < 15
NC(=O)CC[C@H](NC(=O)[C@@H](N)CO)C(=O)O (H-Ser-Gln-OH) | < 15
COC(=O)[C@H](CO)NC(=O)OC(C)(C)C | < 15
O=C(N[C@@H](CO)C(=O)O)OCc1ccccc1 | < 15
CC(C)C[C@H](NC(=O)[C@@H](N)C(C)C)C(=O)O (H-Val-Leu-OH) | < 15
CN[C@@H](CC(C)C)C(=O)NCC(=O)O (H-[NMeL]-Gly-OH) | < 15
CSCC[C@H](N)C(=O)N[C@@H](CC(=O)O)C(=O)O (H-Met-Asp-OH) | < 15
NCC(=O)N1CCC[C@H]1C(=O)O (H-Gly-Pro-OH) | < 15
N[C@@H](CCC(=O)O)C(=O)N[C@@H](Cc1c[nH]c2ccccc12)C(=O)N[C@@H](CCC(=O)O)C(=O)O (H-Glu-Trp-Glu-OH) | < 15
CSCC[C@H](NC(=O)[C@@H](N)[C@@H](C)O)C(=O)O (H-Thr-Met-OH) | < 15
NCC[C@H]1CC[C@H](C(=O)O)CC1 | < 15

Structure (SMILES) | inhibition [%]
N[C@@H](CO)C(=O)NCC(=O)O (H-Ser-Gly-OH) | < 15
CSCC[C@H](NC(=O)[C@H](CC(C)C)NC(=O)CN)C(N)=O (H-Gly-Leu-Met-NH2) | < 15
COC(=O)[C@@H](N)CCSC | < 15
CC(C)[C@H](N)C(=O)N[C@@H](CO)C(=O)O (H-Val-Ser-OH) | < 15
CSCC[C@H](NC(=O)OC(C)(C)C)C(=O)O | < 15
CSCC[C@H](NC(=O)[C@@H](N)CCSC)C(=O)N[C@@H](C)C(=O)O (H-Met-Met-Ala-OH) | < 15
CC[C@H](C)[C@H](NC(=O)CN)C(=O)NCC(=O)O (H-Gly-Ile-Gly-OH) | < 15
CSCC[C@H](N)C(=O)NCC(=O)NCC(=O)O (H-Met-Gly-Gly-OH) | < 15
O=C(O)C[C@H](NC(=O)OCc1ccccc1)C(=O)O | < 15
CC(C)C[C@H](N)C(=O)N[C@@H](C)C(=O)O (H-Leu-Ala-OH) | < 15
CSCCC(NC(=O)C(C)N)C(=O)O (racemic) | < 15
COC(=O)[C@@H](N)CC(C)C | < 15
NC(=O)[C@@H]1CCCN1 | < 15
CC(C)[C@H](NC(=O)[C@@H](N)CCCNC(N)=O)C(=O)O (H-[Cit]-Val-OH) | < 15
CC(C)C(NC(=O)CN)C(=O)O (racemic) | < 15
NCC(=O)N[C@@H](CC(N)=O)C(=O)O (H-Gly-Asn-OH) | < 15
NC(=O)C(N)Cc1c[nH]c2ccccc12 (racemic) | < 15
C[C@H](N)C(=O)N[C@H](CCC(=O)O)C(N)=O (H-Ala-[dE]-NH2) | < 15
CN[C@@H](CC(C)C)C(=O)N[C@@H](CC(C)C)C(=O)O | 15
O=C(O)[C@H]1CNCCN1 | < 15
NCC(=O)NCC(=O)NCCC(=O)O (H-Gly-Gly-[βAla]-OH) | < 15
C[C@H](NC(=O)[C@@H](N)CCC(N)=O)C(=O)O (H-Gln-Ala-OH) | < 15
NCC(=O)NCC(=O)N[C@@H](CCC(=O)O)C(=O)O (H-Gly-Gly-Glu-OH) | < 15
CC(C)C[C@@H](NC(=O)CN)C(=O)O | < 15
O=C(O)CNC(=O)CNC(=O)c1ccccc1 (Bz-Gly-Gly-OH) | < 15

Structure (SMILES) | inhibition [%]
NCCCC(=O)N[C@@H](Cc1cnc[nH]1)C(=O)O | < 15
CC(C)(C)OC(=O)N[C@@H](CCC(=O)O)C(=O)O | < 15
CC(=O)N[C@H](C(=O)O)[C@@H](C)OC(C)(C)C | < 15
O=C(O)C1CCCCN1 (centres undefined) | < 15
CN(CC(=O)O)C(=O)CN (H-Gly-[Sar]-OH) | < 15
CCOC(=O)[C@@H](N)Cc1c[nH]c2ccccc12 | < 15
N[C@@H](CO)Cc1c[nH]c2ccccc12 | < 15
NCC(=O)N[C@@H](CC(=O)O)C(=O)O (H-Gly-Asp-OH) | < 15
CC(C)(C)OC(=O)N1CCC[C@H]1C(=O)O | < 15
CSCC[C@H](NC(=O)CN)C(=O)NCC(=O)O (H-Gly-Met-Gly-OH) | < 15
C[C@H](NC(=O)CNC(=O)CN)C(=O)O | < 15
NCCCC[C@H](N)C(=O)N[C@@H](Cc1c[nH]c2ccccc12)C(=O)O (H-Lys-Trp-OH) | < 15
C[C@H](NC=O)C(=O)O | > 30
CC(C)C[C@H](NC(=O)[C@@H](N)CC(C)C)C(=O)N[C@@H](Cc1cnc[nH]1)C(=O)O (H-Leu-Leu-His-OH) | < 15
CC(C)(C)OC(=O)[C@@H](N)Cc1ccccc1 | < 15
CC[C@H](C)[C@H](N)C(=O)N[C@H](C(=O)O)[C@@H](C)CC (H-Ile-Ile-OH) | < 15
CSCC[C@H](NC(=O)[C@@H](N)Cc1ccccc1)C(=O)O (H-Phe-Met-OH) | < 15
CC[C@H](C)[C@H](N)C(=O)OC | < 15
CC(C)C[C@H](NC(=O)[C@@H](N)CCC(=O)O)C(=O)O (H-Glu-Leu-OH) | < 15
CC(C)C[C@H](NC(=O)[C@@H](N)CC(C)C)C(=O)NCCC(=O)O (H-Leu-Leu-[βAla]-OH) | > 30
CSCC[C@H](N)C(=O)N[C@@H](C)C(=O)O (H-Met-Ala-OH) | < 15
COC(=O)[C@H](C)N | < 15
CSCC[C@H](N)C(=O)N[C@@H](CCC(=O)O)C(=O)O (H-Met-Glu-OH) | < 15
C[C@H](NC(=O)[C@@H](N)Cc1ccc(O)cc1)C(=O)N[C@@H](CCCNC(=N)N)C(=O)O (H-Tyr-Ala-Arg-OH) | < 15
